Source: patent US10829520B2, “Beta-hairpin peptidomimetics” (POLYPHOR AG, priority 2015, dated 2020)
Where a SMILES comes first, the peptide text is derived from it. Bridges are numbered along the chain shown (N, C = ends). Roman numbers before positions name the chains, in order. [ ]: non-standard residue; d: D form. Tle = CC(C)(C)[C@H](N)C(=O)O; dDab = NCC[C@@H](N)C(=O)O; Nle = CCCC[C@H](N)C(=O)O; Orn = NCCC[C@H](N)C(=O)O; Dab = NCC[C@H](N)C(=O)O; Dap = NC[C@H](N)C(=O)O

Legend:
Assay type in all cases: cell-based
[1] = tested on: human red blood cells (hRBC); assay: Hemolysis of human red blood cells; conditions: red cells of human, 1 h
How it was run: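 hRBC washed 3× PBS; 20% v/v, ~0.9×10^9 cells/mL final. Peptide 100 μg/mL, 1 h, 37° C., 300 rpm. Spin, supernatant diluted 8×, OD540. 0% = PBS + 0.001% acetic acid; 100% = 2.5% Triton X-100. % hemolysis = OD540 peptide/OD540 full lysis × 100.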

[2] = tested on: Klebsiella pneumoniae SSI #3010; conditions: SSI #3010
How it was run: (§1)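 CLSI broth microdilution; MH-II (cation-adjusted) + 0.002% P-80; ~10^6 CFU/mL inoculum; peptide two-fold serial dilutions; 18-20 h, 35° C; MIC = no visible growth, μg/mL.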

[3] = tested on: Pseudomonas aeruginosa ATCC 27853; conditions: ATCC 27853
How it was run: as §1

[4] = tested on: Escherichia coli ATCC 25922; conditions: ATCC 25922
How it was run: as §1

Escherichia coli 926415 = conditions: 926415
[5] = tested on: Acinetobacter baumannii 872842; conditions: 872842
[6] = tested on: Acinetobacter baumannii DSM 30008; conditions: DSM 30008
How it was run: as §1

[7] = tested on: Klebsiella pneumoniae 968733; conditions: 968733

SMILES	Hemolysis at 100 μg/mL ([1]; 100 μg/mL)	Klebsiella pneumoniae SSI #3010 MIC [2]	Pseudomonas aeruginosa ATCC 27853 MIC [3]	Escherichia coli ATCC 25922 MIC [4]	Escherichia coli 926415 MIC (Escherichia coli 926415)	Acinetobacter baumannii 872842 MIC [5]	Acinetobacter baumannii DSM 30008 MIC [6]	Klebsiella pneumoniae 968733 MIC [7]	Hemolysis at 100 μg/mL [1]; 100
CCCC[C@@H]1NC(=O)[C@@H]2CCCN2C(=O)[C@H]2CCCN2C(=O)[C@H](CO)NC(=O)[C@H](C)NC(=O)[C@H](C(C)(C)C)NC(=O)[C@@H](NC(=O)[C@H](Cc2c[nH]c3ccccc23)NC(C)=O)CSSC[C@@H](C(=O)N[C@@H](CCN)C(=O)N[C@H](C(=O)N[C@@H](CCN)C(=O)NCC(=O)N[C@H]2CCNC(=O)[C@H]([C@@H](C)O)NC(=O)[C@H](CCN)NC(=O)[C@H](CCN)NC(=O)[C@H](CC(C)C)NC(=O)[C@@H](Cc3ccccc3)NC(=O)[C@H](CCN)NC2=O)[C@@H](C)O)NC(=O)[C@H](Cc2ccc(O)cc2)NC(=O)[C@H](CO)NC1=O [Ex. 33] (Ac-WC[Tle]AS[dP]P[Nle]SYC[Dab]T[Dab]G[Dab][Dab][dF]L[Dab][Dab]T; disulfide 2-11; lactam 16-C)	1%	0.5 µg/mL	0.5 µg/mL	0.25 µg/mL	1 µg/mL	0.25 µg/mL	0.125 µg/mL	0.75 µg/mL	–
CCCC[C@@H]1NC(=O)[C@@H]2CCCN2C(=O)[C@H]2CCCN2C(=O)[C@H](CO)NC(=O)[C@H](C)NC(=O)[C@H](C(C)(C)C)NC(=O)[C@H](CCN)NC(=O)[C@H](Cc2c[nH]c3ccccc23)NC(=O)[C@H](CCN)NC(=O)[C@@H](CCN)NC(=O)[C@H](CC(=O)N[C@@H](CCN)C(=O)N[C@H]2CCNC(=O)[C@H]([C@@H](C)O)NC(=O)[C@H](CCN)NC(=O)[C@H](CCN)NC(=O)[C@H](CC(C)C)NC(=O)[C@@H](CC(C)C)NC(=O)[C@H](CCN)NC2=O)NC(=O)[C@H](CCN)NC(=O)[C@H](Cc2ccc(O)cc2)NC(=O)[C@H](CO)NC1=O [Ex. 71] (I: cyclo([Nle]SY[Dab]D[dDab][Dab]W[Dab][Tle]AS[dP]P) / II: [Dab][Dab][Dab][dL]L[Dab][Dab]T; amide I:5-II:N; lactam II:2-II:C)	–	2 µg/mL	0.5 µg/mL	0.125 µg/mL	0.25 µg/mL	1 µg/mL	0.5 µg/mL	2 µg/mL	<1%
CC(=O)N[C@@H](Cc1c[nH]c2ccccc12)C(=O)N[C@H]1CSSC[C@@H](C(=O)N[C@@H](CCCN)C(=O)N[C@H](C(=O)N[C@@H](CCN)C(=O)N[C@H]2CCNC(=O)[C@H]([C@@H](C)O)NC(=O)[C@H](CCN)NC(=O)[C@H](CCN)NC(=O)[C@H](CC(C)C)NC(=O)[C@@H](Cc3ccccc3)NC(=O)[C@H](CCN)NC2=O)[C@@H](C)O)NC(=O)[C@H](Cc2ccc(O)cc2)NC(=O)[C@H](CO)NC(=O)[C@H]([C@@H](C)O)NC(=O)[C@@H]2CCCN2C(=O)[C@H]2CCCN2C(=O)[C@H](CC(C)C)NC(=O)[C@H](C)NC(=O)[C@H](C(C)(C)C)NC1=O [Ex. 118] (Ac-WC[Tle]AL[dP]PTSYC[Orn]T[Dab][Dab][Dab][dF]L[Dab][Dab]T; disulfide 2-11; lactam 15-C)	2%	0.5 µg/mL	2 µg/mL	0.5 µg/mL	0.5 µg/mL	0.25 µg/mL	0.25 µg/mL	0.5 µg/mL	–
CCCC[C@@H]1NC(=O)[C@@H]2CCCN2C(=O)[C@H]2CCCN2C(=O)[C@H](CO)NC(=O)[C@H](C)NC(=O)[C@H](C(C)(C)C)NC(=O)[C@@H](NC(=O)[C@H](Cc2c[nH]c3ccccc23)NC(C)=O)CSSC[C@@H](C(=O)N[C@@H](CCCN)C(=O)N[C@@H](CCN)C(=O)N[C@H]2CCNC(=O)[C@H]([C@@H](C)O)NC(=O)[C@H](CCN)NC(=O)[C@H](CCN)NC(=O)[C@H](CC(C)C)NC(=O)[C@@H](CC(C)C)NC(=O)[C@H](CCN)NC2=O)NC(=O)[C@H](Cc2ccc(O)cc2)NC(=O)[C@H](CO)NC1=O [Ex. 54] (Ac-WC[Tle]AS[dP]P[Nle]SYC[Orn][Dab][Dab][Dab][dL]L[Dab][Dab]T; disulfide 2-11; lactam 14-C)	1%	0.5 µg/mL	2 µg/mL	0.25 µg/mL	1 µg/mL	1 µg/mL	0.5 µg/mL	4 µg/mL	–
CCCC[C@@H]1NC(=O)[C@@H]2CCCN2C(=O)[C@H]2CCCN2C(=O)[C@H](CO)NC(=O)[C@H](C)NC(=O)[C@H](C(C)(C)C)NC(=O)[C@@H](NC(=O)[C@H](Cc2c[nH]c3ccccc23)NC(C)=O)CSSC[C@@H](C(=O)NCC(=O)N[C@@H](CCN)C(=O)N[C@H](C(=O)N[C@@H](CCN)C(=O)N[C@H]2CCNC(=O)[C@H]([C@@H](C)O)NC(=O)[C@H](CCN)NC(=O)[C@H](CCN)NC(=O)[C@H](CC(C)C)NC(=O)[C@@H](Cc3ccccc3)NC(=O)[C@H](CCN)NC2=O)[C@@H](C)O)NC(=O)[C@H](Cc2ccc(O)cc2)NC(=O)[C@H](CO)NC1=O [Ex. 26] (Ac-WC[Tle]AS[dP]P[Nle]SYCG[Dab]T[Dab][Dab][Dab][dF]L[Dab][Dab]T; disulfide 2-11; lactam 16-C)	<1%	0.25 µg/mL	0.25 µg/mL	0.0625 µg/mL	0.25 µg/mL	0.125 µg/mL	0.5 µg/mL	0.5 µg/mL	–
CC(=O)N[C@@H](Cc1c[nH]c2ccccc12)C(=O)N[C@H]1CSSC[C@@H](C(=O)N[C@@H](CCCN)C(=O)N[C@H](C(=O)N[C@@H](CCN)C(=O)N[C@@H](CCN)C(=O)N[C@H]2CCNC(=O)[C@H]([C@@H](C)O)NC(=O)[C@H](CCN)NC(=O)[C@H](CCN)NC(=O)[C@H](CC(C)C)NC(=O)[C@@H](Cc3ccccc3)NC(=O)[C@H](CCN)NC2=O)[C@@H](C)O)NC(=O)[C@H](Cc2ccc(O)cc2)NC(=O)[C@H](CO)NC(=O)[C@H](CC(C)C)NC(=O)[C@@H]2CCCN2C(=O)[C@H]2CCCN2C(=O)[C@H](CN)NC(=O)[C@H](C)NC(=O)[C@H](C(C)(C)C)NC1=O [Ex. 142] (Ac-WC[Tle]A[Dap][dP]PLSYC[Orn]T[Dab][Dab][Dab][Dab][dF]L[Dab][Dab]T; disulfide 2-11; lactam 16-C)	<1%	0.5 µg/mL	0.25 µg/mL	0.5 µg/mL	0.25 µg/mL	0.125 µg/mL	0.25 µg/mL	1 µg/mL	–
CCCC[C@@H]1NC(=O)[C@@H]2CCCN2C(=O)[C@H]2CCCN2C(=O)[C@H](CO)NC(=O)[C@H](CO)NC(=O)[C@H](C(C)(C)C)NC(=O)[C@H](CCN)NC(=O)[C@H](Cc2c[nH]c3ccccc23)NC(=O)[C@@H](N)CSSC[C@@H](C(=O)N[C@@H](C)C(=O)N[C@H](CCN)C(=O)N[C@H]2CCNC(=O)[C@H]([C@@H](C)O)NC(=O)[C@H](CCN)NC(=O)[C@H](CCN)NC(=O)[C@H](CC(C)C)NC(=O)[C@@H](Cc3ccccc3)NC(=O)[C@H](CCN)NC2=O)NC(=O)[C@H](CCCN)NC(=O)[C@H](CCN)NC(=O)[C@H](Cc2ccc(O)cc2)NC(=O)[C@H](CO)NC1=O [Ex. 199] (H-CW[Dab][Tle]SS[dP]P[Nle]SY[Dab][Orn]CA[dDab][Dab][Dab][dF]L[Dab][Dab]T; disulfide 1-14; lactam 17-C)	<1%	0.5 µg/mL	2 µg/mL	0.25 µg/mL	0.5 µg/mL	0.5 µg/mL	2 µg/mL	4 µg/mL	–
CCCC[C@@H]1NC(=O)[C@@H]2CCCN2C(=O)[C@H]2CCCN2C(=O)[C@H](CO)NC(=O)[C@H](CO)NC(=O)[C@H](C(C)(C)C)NC(=O)[C@@H](NC(=O)[C@@H](N)Cc2c[nH]c3ccccc23)CSSC[C@@H](C(=O)N[C@@H](CCC(=O)O)C(=O)N[C@@H](CCN)C(=O)N[C@@H](CCN)C(=O)N[C@H]2CCNC(=O)[C@H]([C@@H](C)O)NC(=O)[C@H](CCN)NC(=O)[C@H](CCN)NC(=O)[C@H](CC(C)C)NC(=O)[C@@H](Cc3ccccc3)NC(=O)[C@H](CCN)NC2=O)NC(=O)[C@H](Cc2ccc(O)cc2)NC(=O)[C@H](CO)NC1=O [Ex. 108] (H-WC[Tle]SS[dP]P[Nle]SYCE[Dab][Dab][Dab][Dab][dF]L[Dab][Dab]T; disulfide 2-11; lactam 15-C)	2%	2 µg/mL	1 µg/mL	1 µg/mL	0.5 µg/mL	1 µg/mL	1 µg/mL	2 µg/mL	–
